Series [1] concerns human non-small cell lung cancer cell line A549. The series can be described thus: SRB cell viability assay, wild-type A549, normoxic and hypoxic drug treatment. Format: cell-based. The settings on record: for IC50: Homo sapiens, 4 h drug treatment, then 4 days normoxic culture, SRB, mean ± SD; for HCR O2/N2 (WT): wild-type A549, HCR = IC50 in normoxia/IC50 in hypoxia. The procedure: (§1) Tumor cell strain: human non-small cell lung cancer cell line A549.
(§2) Reagent system: SRB, transfection kit
(§3) The cell strains/the cypor transfected cell strains were subject to normoxic and hypoxic cultivations respectively. Then, the cell vitality was analyzed by SRB assay and IC50 values were calculated. At last, the ratio of IC50 values in normoxia and in hypoxia (hypoxic cytotoxicity ratio, HCR) was calculated.
(§4) Both the human non-small cell lung cancer cell line A549 and the cypor transfected cell strains were cultivated in F12 cultivation medium containing 10% fetal bovine serum at 37° C. and in 5% CO2
(§5) The concentration gradient for the drug was set as 10^−3, 10^−4, 10^−5, 10^−6, and 10^−7 mol/L.
(§6) The crystallized powder of the active ingredient was dissolved in DMSO and formulated into a stock solution having a concentration which was 100 times of the maximal administrated concentration of the drug. The administrated concentrations of the drug could be prepared by directly diluting the stock solution with the corresponding serum-free cultivation medium.
(§7) the stock solution was stored at −80° C. in a refrigerator and the solutions of the drug to be administrated were prepared immediately before use.
(§8) The cell in the exponential growth phase was adjusted to a cell density of 1.0×10^5/ml and seeded into a 96-well plate at 100 μl per well. The drug was added under the normoxic and hypoxic condition respectively, according to the experimental grouping, and each of treatments using the drug lasted for 4 h.
(§9) After treatment using the drug was completed, the treated cells were normally cultivated under a normoxic condition for 4 days and then the cell survival rate was assayed by SRB. IC50 was calculated according to the equation of Lg IC50=Σ(Xi+Xi+1)(Pi+1−Pi)/2. Hypoxia cytotoxicity ratio (HCR) was obtained through dividing IC50 value in normoxia by IC50 value in hypoxia. The greater the HCR value is, the stronger the hypoxic selectivity of the drug will be.
(§10) All of the data were statistically analyzed using the software SPSS 11.5, the results were expressed as a mean±standard deviation ( X±SD), the inter-group difference was tested with the program One-Way ANOVA, P<0.05 means a statistically significant difference.

In series [2] the test system is A549 transfected with human cytochrome P450 reducease (CYPOR). In words: cells. Format: cell-based. Particulars: for IC50: Homo sapiens. The procedure:
as §1, §2, §3, §4, §5, §6, §7, §8, §9, §10

Setting [3] is: wild-type A549, hypoxia (N2), read-out: IC50 N2 (WT).
Where [4] appears, read: wild-type A549, normoxia (O2), read-out: IC50 O2 (WT).
[5] abbreviates: A549, read-out: IC50 N2 (CYPOR).
[6] abbreviates: A549, read-out: IC50 O2 (CYPOR).

The structures appear in SMILES notation. Like-named read-outs stand apart in the source and are kept apart here.

By IC50 is commonly meant the concentration that inhibits the measured activity by half. By melting point is commonly meant the temperature of the solid-liquid transition.

`NC(=O)c1ccnc(N2CC2)c1[N+](=O)[O-]` [Compound II, 2-(1-ethyleneimine)-4-carbamoyl-3-nitropyridine]: the melting point is 170 °C (dec.). In series [1] (setting [3]), the IC50 came out at 15.5 ± 2.67 µM. In series [1] (setting [4]), the IC50 amounted to 198 ± 5.04 µM. The “HCR O2/N2 (WT)” value in series [1] was 12.8 ± 2.87. The “HCR O2/N2 (CYPOR)” value in series [2] was found to be 52.5 ± 3.51. Further, the IC50 in series [2] (setting [5]) was determined as 2.7 ± 0.58 µM. The IC50 in series [2] (setting [6]) worked out at 142 ± 10.1 µM.

Turning to `NC(=O)c1cnc(N2CC2)c([N+](=O)[O-])c1` [Compound III, 2-(1-ethyleneimine)-5-carbamoyl-3-nitropyridine], the melting point was 150 °C (dec.). The IC50 in series [1] (setting [3]) was determined as 13.5 ± 3.2 µM. Further, the IC50 in series [1] (setting [4]) amounted to 257 ± 4.83 µM. In addition, the “HCR O2/N2 (WT)” value in series [1] is listed as 19.0 ± 3.91. In addition, the “HCR O2/N2 (CYPOR)” value in series [2] is recorded as 62.0 ± 8.32. In series [2] (setting [5]), the IC50 came out at 2.3 ± 0.27 µM. The IC50 in series [2] (setting [6]) turned out to be 143 ± 9.96 µM.

On to `NC(=O)c1cc([N+](=O)[O-])cnc1N1CC1` [Compound IV, 2-(1-ethyleneimine)-3-carbamoyl-5-nitropyridine], for which the melting point was 160 °C (dec.). Moreover, the IC50 in series [1] (setting [3]) came out at 56.6 ± 7.17 µM. In series [1] (setting [4]), the IC50 is 317.2 ± 2.79 µM. In series [1], the “HCR O2/N2 (WT)” value was 5.6 ± 2.73. The “HCR O2/N2 (CYPOR)” value in series [2] was 21.3 ± 4.56. Moreover, in series [2] (setting [5]), the IC50 is 9.3 ± 3.2 µM. Moreover, in series [2] (setting [6]), the IC50 stood at 198 ± 24.9 µM.

In the case of `NC(=O)c1ccc([N+](=O)[O-])c(N2CC2)n1` [Compound V, 2-(1-ethyleneimine)-6-carbamoyl-3-nitropyridine], the melting point is 170 °C (dec.). The IC50 in series [1] (setting [3]) turned out to be 9.4 ± 2.65 µM. In addition, the IC50 in series [1] (setting [4]) was determined as 79.3 ± 4.77 µM. Further, the “HCR O2/N2 (WT)” value in series [1] came to 8.4 ± 3.56. In addition, the “HCR O2/N2 (CYPOR)” value in series [2] is reported as 35.9 ± 9.15. The IC50 in series [2] (setting [5]) was 1.7 ± 0.38 µM. For the same compound, in series [2] (setting [6]), the IC50 is 61 ± 7.11 µM.

Turning to `NC(=O)c1cc(N2CC2)ncc1[N+](=O)[O-]` [Compound VI, 2-(1-ethyleneimine)-4-carbamoyl-5-nitropyridine], the melting point is 170 °C (dec.). In addition, the IC50 in series [1] (setting [3]) amounted to 5.5 ± 1.6 µM. In addition, the IC50 in series [1] (setting [4]) turned out to be 137 ± 7.34 µM. In addition, the “HCR O2/N2 (WT)” value in series [1] amounted to 25.0 ± 5.71. Also, the “HCR O2/N2 (CYPOR)” value in series [2] is on record as 108.7 ± 8.88. Besides, the IC50 in series [2] (setting [5]) came to 1.1 ± 0.16 µM. For the same compound, in series [2] (setting [6]), the IC50 worked out at 120 ± 6.48 µM.

The values are drawn from patent publication US8940770B2, “Nitropyridinyl ethyleneimine compound, the pharmaceutical composition containing it, the preparation method and use thereof” (Beijing Yiling Bioengineering Co., Ltd, priority 2008, dated 2015).
